For assay [1], the system named is Mycobacterium tuberculosis. The assay is described as follows: Antimycobacterial activity against Mycobacterium tuberculosis H37Rv assessed as growth inhibition in presence of 7H9 nutrient-rich media. It is filed as functional.
For assay [2], the target named is T1, 1-deoxy-D-xylulose 5-phosphate reductoisomerase (Mycobacterium tuberculosis, UniProt P9WNS1).
T1 sequence (P9WNS1 whole entry): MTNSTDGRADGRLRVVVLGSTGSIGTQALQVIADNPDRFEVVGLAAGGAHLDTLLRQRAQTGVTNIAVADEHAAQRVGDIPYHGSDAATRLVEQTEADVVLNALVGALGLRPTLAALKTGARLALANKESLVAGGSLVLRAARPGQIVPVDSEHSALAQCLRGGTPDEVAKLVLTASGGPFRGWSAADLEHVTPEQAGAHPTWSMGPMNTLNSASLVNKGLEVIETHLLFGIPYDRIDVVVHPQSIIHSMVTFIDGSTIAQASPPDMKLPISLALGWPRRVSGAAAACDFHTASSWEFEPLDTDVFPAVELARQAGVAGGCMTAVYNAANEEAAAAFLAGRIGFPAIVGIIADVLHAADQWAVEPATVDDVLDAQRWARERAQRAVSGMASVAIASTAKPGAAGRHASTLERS
Put plainly: Inhibition of Mycobacterium tuberculosis Dxr.

Assay [3] deals with Mycobacterium tuberculosis. Put plainly: Antimycobacterial activity against Mycobacterium tuberculosis H37Rv assessed as growth inhibition in presence of GAST minimal media. It is filed as functional.
Assay [4] deals with T2, 1-deoxy-D-xylulose 5-phosphate reductoisomerase (Mycobacterium tuberculosis) (UniProt P9WNS1).
T2 sequence (whole entry): T1 sequence (P9WNS1 whole entry)
The assay is described as follows: Inhibition of Mycobacterium tuberculosis Dxr at 100 uM.

Structures are written as SMILES.

The term MIC denotes the lowest concentration found to suppress growth. With `CCOP(=O)(CCN(O)C=O)OCC`, the MIC in assay [1] is greater than 500 µg/mL.

For orientation: IC50 means the concentration at which inhibition is half-maximal. Take `CC(=O)N(O)CCCP(=O)(O)O` [FR-900098]: in assay [2], the midpoint of inhibition, the IC50, lay at 2.39 µM.

`CC(=O)N(O)C/C=C/P(=O)([O-])O.[Na+]`: inhibition in assay [2] was half-maximal at 1.07 µM (IC50). In addition, the MIC in assay [3] was 150 µg/mL; in assay [1], greater than 200 µg/mL.

By inhibition is commonly meant the relative decrease from the control value, in per cent. Low readings indicate a weak effect, high ones a strong effect. As to `CC(=O)N(O)CCCCCP(=O)([O-])O.[Na+]`, the MIC in assay [3] and in assay [1] was greater than 200 µg/mL in each case. Besides, the inhibition in assay [4] was 86%.

Consider `CC(=O)N(O)CCCCP(=O)([O-])O.[Na+]`, for which the MIC in assay [3] and in assay [1] was greater than 200 µg/mL each time. Further, the inhibition in assay [4] was 80%.

In the case of `CCOP(=O)(CCN(O)C(C)=O)OCC`, the MIC in assay [1] was greater than 500 µg/mL.

In the case of `CCOP(=O)(/C=C/CN(O)C(C)=O)OCC`, the MIC in assay [3] is 150 µg/mL; in assay [1], greater than 200 µg/mL.

In the case of `CC(=O)N(O)CCP(=O)([O-])O.[Na+]`, the MIC in assay [3] was 150 µg/mL; in assay [1], greater than 200 µg/mL. In assay [4], this molecule came in with an inhibition of 74%.

Take `CC(=O)N(O)C/C=C/P(=O)(OCOC(=O)C(C)(C)C)OCOC(=O)C(C)(C)C`: the minimum inhibitory concentration (MIC) was 12.5 µg/mL in assay [3] and 9.4 µg/mL in assay [1].

Consider `CCOP(=O)(CCCCCN(O)C(C)=O)OCC`, for which the MIC in assay [3] is 200 µg/mL; in assay [1] it was greater than 200 µg/mL.

With `CCOP(=O)(CCCCN(O)C(C)=O)OCC`, the MIC in assay [3] was 75 µg/mL; in assay [1], greater than 200 µg/mL.

Take `CC(=O)N(O)CCCCP(=O)(OCOC(=O)C(C)(C)C)OCOC(=O)C(C)(C)C`: the figures for the minimal inhibitory concentration (MIC) in assay [3] and in assay [1] were 150 µg/mL and no less than 200 µg/mL, respectively.

Values taken from ChEMBL document CHEMBL3102733, “The effect of chain length and unsaturation on Mtb Dxr inhibition and antitubercular killing activity of FR900098 analogs” (Bioorg Med Chem Lett, 2014).
